Results from the NIST ThermoML archive (doi:10.1016/j.jct.2004.09.021).

Key:
[1] = xn = mol fraction of the nth substance listed; settings: 101 kPa, Liquid
[2] = refractive index (Na D-line) (dimensionless); xn = mol fraction of the nth substance listed; settings: 101 kPa, Liquid
[3] = 101 kPa, Liquid
[4] = refractive index (Na D-line) (dimensionless); settings: 101.33 kPa, Liquid

CCCCCCCCCC [decane] + COc1ccccc1
x2 = 0
Settings	mass density, 293.15 K [kg/m3]	mass density, 298.15 K [kg/m3]	mass density, 303.15 K [kg/m3]	refractive index, 293.15 K	refractive index, 298.15 K	refractive index, 303.15 K	viscosity, 293.15 K [mPa·s]	viscosity, 298.15 K [mPa·s]	viscosity, 303.15 K [mPa·s]
[1]	729.91	726.16	722.36	–	–	–	0.9169	0.8512	0.7898
[2]	–	–	–	1.4148	1.4118	1.4089	–	–	–

CCCCCCCC [octane] + COc1ccccc1
x2 = 0
Settings	mass density, 293.15 K [kg/m3]	mass density, 298.15 K [kg/m3]	mass density, 303.15 K [kg/m3]	refractive index, 293.15 K	refractive index, 298.15 K	refractive index, 303.15 K	viscosity, 293.15 K [mPa·s]	viscosity, 298.15 K [mPa·s]	viscosity, 303.15 K [mPa·s]
[1]	702.61	698.57	694.56	–	–	–	0.5464	0.5123	0.483
[2]	–	–	–	1.3965	1.3947	1.3926	–	–	–

CCCCCCCCC [nonane]
Settings	mass density, 293.15 K [kg/m3]	mass density, 298.15 K [kg/m3]	mass density, 303.15 K [kg/m3]	refractive index, 293.15 K	refractive index, 298.15 K	refractive index, 303.15 K	viscosity, 293.15 K [mPa·s]	viscosity, 298.15 K [mPa·s]	viscosity, 303.15 K [mPa·s]
[3]	717.59	713.71	709.81	–	–	–	0.7136	0.6715	0.6307
[4]	–	–	–	1.404	1.4027	1.4002	–	–	–

CCCCCCC [heptane] + COc1ccccc1
x2 = 0
Settings	mass density, 293.15 K [kg/m3]	mass density, 298.15 K [kg/m3]	mass density, 303.15 K [kg/m3]	refractive index, 293.15 K	refractive index, 298.15 K	refractive index, 303.15 K	viscosity, 293.15 K [mPa·s]	viscosity, 298.15 K [mPa·s]	viscosity, 303.15 K [mPa·s]
[1]	683.96	679.77	675.5	–	–	–	0.4127	0.3909	0.3702
[2]	–	–	–	1.3872	1.3855	1.3827	–	–	–

CCCCCC [hexane]
Settings	mass density, 293.15 K [kg/m3]	mass density, 298.15 K [kg/m3]	mass density, 303.15 K [kg/m3]	refractive index, 293.15 K	refractive index, 298.15 K	refractive index, 303.15 K	viscosity, 293.15 K [mPa·s]	viscosity, 298.15 K [mPa·s]	viscosity, 303.15 K [mPa·s]
[3]	659.5	654.96	650.42	–	–	–	0.3114	0.2974	0.2838
[4]	–	–	–	1.3759	1.3732	1.3709	–	–	–

CCCCCC [hexane] + COc1ccccc1
x2 = 0
Settings	mass density, 293.15 K [kg/m3]	mass density, 298.15 K [kg/m3]	mass density, 303.15 K [kg/m3]	refractive index, 293.15 K	refractive index, 298.15 K	refractive index, 303.15 K	viscosity, 293.15 K [mPa·s]	viscosity, 298.15 K [mPa·s]	viscosity, 303.15 K [mPa·s]
[1]	659.5	654.96	650.42	–	–	–	0.3114	0.2974	0.2838
[2]	–	–	–	1.3759	1.3732	1.3709	–	–	–

CCCCCCCCCCCC [dodecane] + COc1ccccc1
x2 = 0
Settings	mass density, 293.15 K [kg/m3]	mass density, 298.15 K [kg/m3]	mass density, 303.15 K [kg/m3]	refractive index, 293.15 K	refractive index, 298.15 K	refractive index, 303.15 K	viscosity, 293.15 K [mPa·s]	viscosity, 298.15 K [mPa·s]	viscosity, 303.15 K [mPa·s]
[1]	748.78	745.14	741.52	–	–	–	1.487	1.373	1.25
[2]	–	–	–	1.421	1.4172	1.4135	–	–	–

CCCCCCCCCCCC [dodecane]
Settings	mass density, 293.15 K [kg/m3]	mass density, 298.15 K [kg/m3]	mass density, 303.15 K [kg/m3]	refractive index, 293.15 K	refractive index, 298.15 K	refractive index, 303.15 K	viscosity, 293.15 K [mPa·s]	viscosity, 298.15 K [mPa·s]	viscosity, 303.15 K [mPa·s]
[3]	748.78	745.14	741.52	–	–	–	1.487	1.373	1.25
[4]	–	–	–	1.421	1.4172	1.4135	–	–	–

CCCCCCC [heptane]
Settings	mass density, 293.15 K [kg/m3]	mass density, 298.15 K [kg/m3]	mass density, 303.15 K [kg/m3]	refractive index, 293.15 K	refractive index, 298.15 K	refractive index, 303.15 K	viscosity, 293.15 K [mPa·s]	viscosity, 298.15 K [mPa·s]	viscosity, 303.15 K [mPa·s]
[3]	683.96	679.77	675.5	–	–	–	0.4127	0.3909	0.3702
[4]	–	–	–	1.3872	1.3855	1.3827	–	–	–

COc1ccccc1 [anisole] + CCCCCCC
Settings	mass density, 293.15 K [kg/m3]	mass density, 298.15 K [kg/m3]	mass density, 303.15 K [kg/m3]	refractive index, 293.15 K	refractive index, 298.15 K	refractive index, 303.15 K	viscosity, 293.15 K [mPa·s]	viscosity, 298.15 K [mPa·s]	viscosity, 303.15 K [mPa·s]
[1], x1 = 0.1002	707.25	702.96	698.59	–	–	–	0.4315	0.4121	0.3918
[1], x1 = 0.2002	731.96	727.61	723.18	–	–	–	0.4541	0.434	0.4135
[1], x1 = 0.2987	757.78	753.37	748.88	–	–	–	0.4775	0.4581	0.4356
[1], x1 = 0.3994	785.83	781.36	776.8	–	–	–	0.5184	0.4896	0.4639
[1], x1 = 0.4996	815.43	810.9	806.29	–	–	–	0.5675	0.5347	0.5064
[1], x1 = 0.5958	845.62	841.04	836.39	–	–	–	0.6285	0.5911	0.5603
[1], x1 = 0.6993	880.28	875.65	870.94	–	–	–	0.7129	0.6692	0.6322
[1], x1 = 0.7981	915.67	911.07	906.4	–	–	–	0.8105	0.7613	0.7161
[1], x1 = 0.8991	953.76	949.15	944.46	–	–	–	0.9337	0.8767	0.8197
[1], x1 = 1	993.81	989.15	984.42	–	–	–	1.085	1.017	0.9285
[2], x1 = 0.1007	–	–	–	1.3975	1.3954	1.3924	–	–	–
[2], x1 = 0.21	–	–	–	1.4087	1.4064	1.4036	–	–	–
[2], x1 = 0.31	–	–	–	1.4189	1.4167	1.414	–	–	–
[2], x1 = 0.405	–	–	–	1.4294	1.4272	1.4248	–	–	–
[2], x1 = 0.4985	–	–	–	1.4407	1.4385	1.4362	–	–	–
[2], x1 = 0.583	–	–	–	1.4516	1.4495	1.4474	–	–	–
[2], x1 = 0.6989	–	–	–	1.4683	1.466	1.464	–	–	–
[2], x1 = 0.792	–	–	–	1.4826	1.4802	1.4782	–	–	–
[2], x1 = 0.8941	–	–	–	1.499	1.4966	1.4947	–	–	–
[2], x1 = 1	–	–	–	1.5161	1.5141	1.5129	–	–	–

COc1ccccc1 [anisole]
Settings	mass density, 293.15 K [kg/m3]	mass density, 298.15 K [kg/m3]	mass density, 303.15 K [kg/m3]	refractive index, 293.15 K	refractive index, 298.15 K	refractive index, 303.15 K	viscosity, 293.15 K [mPa·s]	viscosity, 298.15 K [mPa·s]	viscosity, 303.15 K [mPa·s]
[3]	993.81	989.15	984.42	–	–	–	1.085	1.017	0.9285
[4]	–	–	–	1.5161	1.5141	1.5129	–	–	–

CCCCCCCC [octane]
Settings	mass density, 293.15 K [kg/m3]	mass density, 298.15 K [kg/m3]	mass density, 303.15 K [kg/m3]	refractive index, 293.15 K	refractive index, 298.15 K	refractive index, 303.15 K	viscosity, 293.15 K [mPa·s]	viscosity, 298.15 K [mPa·s]	viscosity, 303.15 K [mPa·s]
[3]	702.61	698.57	694.56	–	–	–	0.5464	0.5123	0.483
[4]	–	–	–	1.3965	1.3947	1.3926	–	–	–
